Measured values taken from patent US20230399296A1, “RNA VIRUS INHIBITOR COMPOUNDS WITH IMPROVED METABOLIC STABILITY AND USES THEREOF” (priority 2022, published 2023).

Key:
[1] = Microsomal stability, mouse liver microsomes; assay type: in vitro ADME
Description: (§1) Experiments were performed to assess the stability of the compounds in the presence of mouse and human liver microsomes. The experimental procedures there were used are described below. Examples of the percent remaining of the compound curves in the presence of human microsomes are shown in FIGS. 2A to 2F, and examples of the determined half-life are provided in TABLE 3.
(§2) Intermediate solution: 5 μL of compound and control stock solution (10 mM in dimethyl sulfoxide (DMSO)) were diluted with 495 μL of acetonitrile (ACN) (intermediate solution concentration: 100 μM, 99% ACN).
(§3) Working solution: 50 μL of compound and control intermediate solution (100 μM) were diluted with 450 μL of 100 mM potassium phosphate buffer (working solution concentration: 10 μM, 9.9% ACN).
(§4) The appropriate amount of NADPH powder was weighed and diluted into a 10 mM MgCl2 solution (working solution concentration: 10 unit/mL; final concentration in reaction system: 1 unit/mL).
(§5) The appropriate concentrations of microsome working solutions were prepared in 100 mM potassium phosphate buffer.
(§6) Cold (4° C.) acetonitrile (ACN) containing 200 ng/mL tolbutamide and 200 ng/mL labetalol as internal standards (IS) was used as the stop solution.
(§7) Using an Apricot automation workstation, 10 μL/well of compound working solution were added to all 96-well reaction plates except the blank (T0, T5, T10, T20, T30, T60, and NCF60). An Apricot automation workstation was used to add 80 μL/well of microsome solution to all reaction plates (Blank, T0, T5, T10, T20, T30, T60, and NCF60). All reaction plates containing mixtures of compound and microsomes were pre-incubated at 37° C. for 10 minutes. An Apricot automation workstation was used to add 10 μL/well of 100 mM potassium phosphate buffer to reaction plate NCF60. Reaction plate NCF60 was incubated at 37° C., and timer 1 was started. After pre-incubation, an Apricot automation workstation was used to add 10 μL/well of NADPH regenerating system to every reaction plate except NCF60 (Blank, T0, T5, T10, T20, T30, and T60) to start the reaction. The reaction plates were incubated at 37° C., and timer 2 was started. An Apricot automation workstation was used to add 300 μL/well of stop solution to each reaction plate at its appropriate end time point to terminate the reaction. Each plate was sealed and shaken for 10 minutes. After shaking, each plate was centrifuged at 4000 rpm and 4° C. for 20 minutes. During centrifugation, an Apricot automation workstation was used to add 300 μL/well of HPLC grade water to eight new 96-well plates. After centrifugation, an Apricot automation workstation was used to transfer 100 μL of supernatant from each reaction plate to its corresponding bioanaylsis plate. Each bioanalysis plate was sealed and shaken for 10 minutes prior to LC-MS/MS analysis.
(§8) The equation of first order kinetics was used to calculate T½: […]

[2] = Microsomal stability, human liver microsomes; assay type: in vitro ADME
Description: as §1, §2, §3, §4, §5, §6, §7, §8

[3] = biological target: SARS-CoV-2 3CLP (Severe acute respiratory syndrome coronavirus 2 (2019-nCoV) (SARS-CoV-2), UniProt P0DTD1); test: SARS-CoV-2 3CLP FRET inhibition assay; assay type: biochemical; conditions: 80 nM SARS-CoV-2 3CLP, 100 μM FRET substrate, pH 7.8, 37° C.; read-out: 3CL Protease IC50
Source text: Compounds described herein were screened for SARS-CoV-2 3CLP inhibition using a Fluorescence resonance energy transfer (FRET) assay at different compound concentrations. Examples of the resulting concentration response curves are shown in FIGS. 1A and 1B, and examples of the determined 50 percent inhibition concentration (IC50) are provided in TABLE 1.
A synthesized fluorescent substrate containing the cleavage site (indicated by the arrow, ↓) of SARS-CoV-2 3CLP (2-Abz-SVTLQ↓SG-Tyr(NO2)—R—NH2) was used for the fluorescence resonance energy transfer (FRET)-based cleavage assay. The protease reaction of SARS-CoV-2 3CLP towards fluorescent substrate was performed in activity buffer (20 mM Bis Tris, pH 7.8, 1 mM DTT) at 37° C. for 10 min. The final concentration of protease used in the assay was fixed at 80 nM and the concentrations of the substrate were varied from 0.1 to 500 μM. Reaction was started with the enzyme and the fluorescence signal of the Abz-SVTLQ peptide cleavage product was monitored at an emission wavelength of 420 nm with excitation at 320 nm, using an Flx800 fluorescence spectrophotometer (BioTek). Before kinetic calculations, it was verified that the proportionality between the fluorescence emitted and the amount of the substrate used in the assay was linear. The minimal concentration of the enzyme and time of reaction that gave a linear dependence of amount of generated product with time was chosen. Initial velocities in corresponding relative fluorescence units per unit of time (ARFU/s) were converted to the amount of the cleaved substrate per unit of time (M/s) by fitting to the calibration curve of free Aminobenzoyl-SVTLQ. All data are corrected for inner filter effects by an adopted literature protocol. In short, the fluorescence signal (RFU) at each substrate concentration was determined and defined as f(FRET). Then, 5 μL free Aminobenzoyl-SVTLQ at final 5 μM was added to each concentration and fluorescence was taken f(FRET+Aminobenzoyl-SVTLQ). Simultaneously, a reference reading was taken with the same free Aminobenzoyl-SVTLQ concentration and defined as f(ref). The inner-filter correction was obtained as:
Stock solutions of the compounds were prepared with DMSO. For the determination of the IC50, 80 nM of SARS-CoV-2 3CLP was incubated with the compounds at various concentrations from 0 to 100 μM in 20 mM Bis-Tris, pH 7.8, 1 mM DTT at 37° C. for 10 min. The protease reaction was started by addition of 100 μM of the substrate. The GraphPad Prism 6.0 software (GraphPad) was used for the calculation of the IC50 values.

[4] = test system: SARS-CoV-2; test: SARS-CoV-2 plaque reduction assay in Vero E6 cells; assay type: cell-based; conditions: Severe acute respiratory syndrome coronavirus 2, Vero C1008, 48 h, read-out: SARS-CoV-2 Antiviral EC50
[5] = in vitro; assay type: cell-based; conditions: male, human (A549); green monkey (Vero E6)
Description: Cell viability was measured using the CellTiter-Glo luminescent cell viability assay (Promega). Separately A549 (human lung epithelial) cells and VeroE6 cells were seeded at 5×10^3 cells/well in 96-well plates and incubated overnight before treatment. Compounds were solubilized in DMSO and added to cells in an eight-point four-fold serial dilution (200 μM to 0.0122 μM). Cells were incubated in the presence of compounds for 24 hours before addition of the luminescence substrate and measurement of ATP activity according to manufacturer's instructions. The percentage of viable cells was calculated relative to cells treated with solvent alone (0.5% DMSO).

[6] = mouse liver microsomes, NADPH, 37° C., read-out: Mouse Microsomes Half-life
[7] = human liver microsomes, NADPH, 37° C., read-out: Human Microsomes Half-life

| Compound | half-life at 1 μM ([1]; mouse, microsomes) | half-life at 1 μM ([2]; human, microsomes) | IC50 [3] | EC50 [4] | CC50 at 24 h [5] | half-life at 1 μM [1, 6] | half-life at 1 μM [2, 7] |
| --- | --- | --- | --- | --- | --- | --- | --- |
| COc1cccc2[nH]c(C(=O)N[C@@H](CC(C)C)C(=O)N[C@@H](C[C@@H]3CCCNC3=O)C(=O)CO)cc12 [AVI-8004, reference compound] | 12 min | 34 min | – | – | – | – | – |
| COc1cccc2[nH]c(C(=O)N[C@@H](CC(C)C)C(=O)N[C@H](C#N)C[C@@H]3CCCNC3=O)cc12 [AVI-8059, reference compound] | 10 min | 16 min | – | – | – | – | – |
| O=C(N[C@@H](CC1CC1)C(=O)N[C@@H](C[C@@H]1CCCNC1=O)C(=O)CO)c1cc2cc(F)cc(F)c2[nH]1 [Compound 1, N-[(2S)-3-cyclopropyl-1-({(2S)-4-hydroxy-3-oxo-1-[(3S)-2-oxopiperidin-3-yl]butan-2-yl}amino)-1-oxopropan-2-yl]-5,7-difluoro-1H-indole-2-carboxamide] | – | – | < 0.05 µM | < 10 µM | > 200 µM | 57 min | 46 min |
| O=C(N[C@@H](CC1CC1)C(=O)N[C@@H](C[C@@H]1CCCNC1=O)C(=O)CO)c1cc2cccc(Cl)c2[nH]1 [Compound 2, 7-chloro-N-[(2S)-3-cyclopropyl-1-({(2S)-4-hydroxy-3-oxo-1-[(3S)-2-oxopiperidin-3-yl]butan-2-yl}amino)-1-oxopropan-2-yl]-1H-indole-2-carboxamide] | – | – | < 0.05 µM | < 5 µM | > 200 µM | 15 min | 26 min |
| O=C(N[C@@H](CC1CC1)C(=O)N[C@@H](C[C@@H]1CCNC1=O)C(=O)CO)c1cc2cc(F)cc(F)c2[nH]1 [Compound 3, N-[(2S)-3-cyclopropyl-1-({(2S)-4-hydroxy-3-oxo-1-[(3S)-2-oxopyrrolidin-3-yl]butan-2-yl}amino)-1-oxopropan-2-yl]-5,7-difluoro-1H-indole-2-carboxamide] | – | – | < 0.01 µM | < 5 µM | > 200 µM | 124 min | > 145 min |
| O=C(N[C@@H](CC1CC1)C(=O)N[C@@H](C[C@@H]1CCNC1=O)C(=O)CO)c1cc2cccc(Cl)c2[nH]1 [Compound 4, 7-chloro-N-[(2S)-3-cyclopropyl-1-({(2S)-4-hydroxy-3-oxo-1-[(3S)-2-oxopyrrolidin-3-yl]butan-2-yl}amino)-1-oxopropan-2-yl]-1H-indole-2-carboxamide] | – | – | < 0.01 µM | < 5 µM | > 200 µM | 38 min | 76 min |
| O=C(N[C@@H](CC1CC1)C(=O)N[C@@H](C[C@@H]1CCNC1=O)C(=O)CO)c1cc2cccc(F)c2[nH]1 [Compound 5, N-[(2S)-3-cyclopropyl-1-({(2S)-4-hydroxy-3-oxo-1-[(3S)-2-oxopyrrolidin-3-yl]butan-2-yl}amino)-1-oxopropan-2-yl]-7-fluoro-1H-indole-2-carboxamide] | – | – | < 0.05 µM | 5 to 10 µM | > 200 µM | 124 min | > 145 min |
| O=C(N[C@@H](CC1CC1)C(=O)N[C@@H](C[C@@H]1CCCNC1=O)C(=O)CO)c1cc2cccc(F)c2[nH]1 [Compound 9, N-[(2S)-3-cyclopropyl-1-({(2S)-4-hydroxy-3-oxo-1-[(3S)-2-oxopiperidin-3-yl]butan-2-yl}amino)-1-oxopropan-2-yl]-7-fluoro-1H-indole-2-carboxamide] | – | – | < 0.01 µM | < 5 µM | > 200 µM | 91 min | 74 min |
| CC(C)[C@H](N)C(=O)OCC(=O)[C@H](C[C@@H]1CCCNC1=O)NC(=O)[C@H](CC1CC1)NC(=O)c1cc2cc(F)cc(F)c2[nH]1.Cl [Compound 17, (3S)-3-{[3-cyclopropyl-N-(5,7-difluoro-1H-indole-2-carbonyl)-L-alanyl]amino}-2-oxo-4-[(3S)-2-oxopiperidin-3-yl]butyl L-valinate hydrochloride Salt] | – | – | < 0.05 µM | < 5 µM | > 200 µM | 6 min | 6 min |
| N#C[C@H](C[C@@H]1CCCNC1=O)NC(=O)[C@H](CC1CC1)NC(=O)c1cc2cccc(Cl)c2[nH]1 [PBI-0451, reference compound] | 12 min | 11 min | – | – | – | – | – |
| CC(C)(C)[C@H](NC(=O)C(F)(F)F)C(=O)N1C[C@H]2[C@@H]([C@H]1C(=O)N[C@H](C#N)C[C@@H]1CCNC1=O)C2(C)C [nirmatrelvir, reference compound] | 15 min | 40 min | – | – | – | – | – |
